Data from patent publication US10112929B2, “Lactams as inhibitors of rock” (BRISTOL-MYERS SQUIBB COMPANY, priority 2015, dated 2018).

Target: ROCK2 (Homo sapiens (Human), UniProt O75116)
Assay: biochemical
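Also: rho kinase enzyme reaction halted with EDTA, phospho- and non-phospho peptide separated for read-out, kinase activity inhibition derived across a dose-response series, DMSO under 2%.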

ROCK2, sequence (O75116 whole entry, species assumed): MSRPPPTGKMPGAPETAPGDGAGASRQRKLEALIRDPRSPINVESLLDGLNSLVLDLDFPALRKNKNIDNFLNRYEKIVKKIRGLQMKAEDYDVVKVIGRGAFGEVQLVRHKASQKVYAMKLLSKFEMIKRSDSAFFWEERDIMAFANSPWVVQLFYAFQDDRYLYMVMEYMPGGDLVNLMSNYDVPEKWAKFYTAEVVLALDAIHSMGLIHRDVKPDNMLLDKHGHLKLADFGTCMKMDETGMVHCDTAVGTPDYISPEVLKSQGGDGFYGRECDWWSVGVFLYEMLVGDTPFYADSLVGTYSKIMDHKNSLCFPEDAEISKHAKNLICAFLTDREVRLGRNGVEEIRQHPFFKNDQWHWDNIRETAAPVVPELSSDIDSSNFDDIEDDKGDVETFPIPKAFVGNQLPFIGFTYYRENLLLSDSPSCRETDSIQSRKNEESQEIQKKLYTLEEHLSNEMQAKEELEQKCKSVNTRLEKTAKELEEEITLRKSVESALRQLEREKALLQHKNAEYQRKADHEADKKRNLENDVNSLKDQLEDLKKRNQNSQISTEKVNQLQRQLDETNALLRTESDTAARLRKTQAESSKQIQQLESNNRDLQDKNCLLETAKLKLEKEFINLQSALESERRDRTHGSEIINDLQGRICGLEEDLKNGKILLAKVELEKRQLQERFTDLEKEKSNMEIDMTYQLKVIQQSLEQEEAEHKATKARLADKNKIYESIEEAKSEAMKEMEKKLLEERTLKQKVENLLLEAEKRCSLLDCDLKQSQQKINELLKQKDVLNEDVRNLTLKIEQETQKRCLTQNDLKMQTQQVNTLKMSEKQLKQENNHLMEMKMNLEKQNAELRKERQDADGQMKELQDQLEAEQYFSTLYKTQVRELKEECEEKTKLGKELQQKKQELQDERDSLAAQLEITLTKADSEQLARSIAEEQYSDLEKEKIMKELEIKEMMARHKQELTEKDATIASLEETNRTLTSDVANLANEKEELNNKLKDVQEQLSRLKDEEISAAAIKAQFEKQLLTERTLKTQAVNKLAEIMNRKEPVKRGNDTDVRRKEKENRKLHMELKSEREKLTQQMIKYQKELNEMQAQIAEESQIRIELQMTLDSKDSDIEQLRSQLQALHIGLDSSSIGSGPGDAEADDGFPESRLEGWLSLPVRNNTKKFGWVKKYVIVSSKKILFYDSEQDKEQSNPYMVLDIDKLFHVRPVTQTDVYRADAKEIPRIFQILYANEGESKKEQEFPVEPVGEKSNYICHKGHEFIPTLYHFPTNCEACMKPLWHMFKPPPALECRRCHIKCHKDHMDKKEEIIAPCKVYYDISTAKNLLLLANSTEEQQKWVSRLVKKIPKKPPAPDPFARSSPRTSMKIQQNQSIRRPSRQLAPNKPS

| IC50 [nM] | Structure (SMILES) |
| --- | --- |
| 10 to 100 | COc1cc(F)cc(NC2CCN(c3cc(F)c(-c4cn[nH]c4)cc3F)C2=O)c1 (single isomer, unassigned) [Example 351, 1-(2,5-difluoro-4-(1H-pyrazol-4-yl)phenyl)-3-((3-fluoro-5-methoxyphenyl)amino)pyrrolidin-2-one] |
| < 10 | COc1cccc(N[C@H]2C(=O)N(c3ccc(-c4cn[nH]c4)cc3)C[C@@H]2CO)c1 [Example 133, (3R,4S)-1-(4-(1H-Pyrazol-4-yl)phenyl)-4-(hydroxymethyl)-3-((3-methoxyphenyl)amino) pyrrolidin-2-one] |
| 10 to 100 | COc1cccc(NC2CCN(c3ccc(-c4cn[nH]c4)c(C)n3)C2=O)c1 (single isomer, unassigned) [Example 188, 3-((3-methoxyphenyl)amino)-1-(6-methyl-5-(1H-pyrazol-4-yl)pyridin-2-yl)pyrrolidin-2-one] |
| 100 to 2200 | COc1ccc(NC2CCN(c3ccc(-c4cn[nH]c4)c(Cl)c3)C2=O)cc1F (single isomer, unassigned) [Example 156, 1-(3-chloro-4-(1H-pyrazol-4-yl)phenyl)-3 ((3-fluoro-4-methoxyphenyl)amino) pyrrolidin-2-one] |
| 10 to 100 | O=C1C(c2ccccc2)CCN1c1ccc(-c2cn[nH]c2)cc1 (centres unmarked) [Example 101, 1-(4-(1H-pyrazol-4-yl)phenyl)-3-phenylpyrrolidin-2-one] |
| 100 to 2200 | COc1cccc2c1N(C1CCN(c3ccc(-c4cn[nH]c4)cc3)C1=O)CC2 (single isomer, unassigned) [Example 52, 1-(4-(1H-pyrazol-4-yl)phenyl)-3-(7-methoxyindolin-1-yl)pyrrolidin-2-one] |
| < 10 | COc1cccc(NC2CCN(c3cc(F)c(-c4cn[nH]c4)c(F)c3)C2=O)c1 (single isomer, unassigned) [Example 311, 1-(3,5-difluoro-4-(1H-pyrazol-4-yl)phenyl)-3-((3-methoxyphenyl)amino)pyrrolidin-2-one] |
| 10 to 100 | COc1cccc(NC2CCN(c3ccc(-c4ccnc(N)n4)cc3)C2=O)c1 (single isomer, unassigned) [Example 78, 1-(4-(2-aminopyrimidin-4-yl)phenyl)-3-((3-methoxyphenyl)amino)pyrrolidin-2-one] |
| < 10 | O=C1C(Nc2cccc(OC(F)F)c2)CCN1c1ccc(-c2cn[nH]c2)cc1 (single isomer, unassigned) [Example 232, 1-(4-(1H-pyrazol-4-yl)phenyl)-3-((3-(difluoromethoxy)phenyl)amino) pyrrolidin-2-one] |
| < 10 | COc1nc(N2CCC(Nc3cccc(S(N)(=O)=O)c3)C2=O)ccc1-c1cn[nH]c1 (racemic) [Example 268, 3-((1-(6-methoxy-5-(1H-pyrazol-4-yl)pyridin-2-yl)-2-oxopyrrolidin-3-yl)amino)benzenesulfonamide] |
| 100 to 2200 | COc1c(F)cccc1NC1CCN(c2ccc(-c3cn[nH]c3)cn2)C1=O (single isomer, unassigned) [Example 90, 1-(5-(1H-pyrazol-4-yl)pyridin-2-yl)-3-((3-fluoro-2-methoxyphenyl)amino)pyrrolidin-2-one] |
| 100 to 2200 | COc1c(F)cccc1NC1CCN(c2ccc(-c3cn[nH]c3)cc2F)C1=O (single isomer, unassigned) [Example 342, 3-((3-fluoro-2-methoxyphenyl)amino)-1-(2-fluoro-4-(1H-pyrazol-4-yl)phenyl) pyrrolidin-2-one] |
| < 10 | COc1cc(NC2CCN(c3ccc(-c4cn[nH]c4)cc3)C2=O)ccc1F (centres unmarked) [Example 4, 1-(4-(1H-pyrazol-4-yl)phenyl)-3-((4-fluoro-3-methoxyphenyl)amino)pyrrolidin-2-one] |
| < 10 | COc1cc(F)cc(NC2CCN(c3ccc(-c4cn[nH]c4)c(F)c3)C2=O)c1 (single isomer, unassigned) [Example 49, 1-(3-fluoro-4-(1H-pyrazol-4-yl)phenyl)-3-((3-fluoro-5-methoxyphenyl)amino)pyrrolidin-2-one] |
